For orientation: Kd means a measure of binding affinity in units of concentration. As usually defined, the Ki is a measure of affinity in units of concentration, obtained from inhibition or displacement.

Molecules are shown by their SMILES. “And” between values parts separate entries of the source, which are not always exact repeats. Equal values may be shown once. The source made the active and inactive calls. No cut-off for these calls is given here.

The test system of test [1] is Legionella pneumophila. In words: Inhibition of Legionella pneumophila recombinant PAH assessed as residual activity by […] assay using 1 mM L-Phe as substrate and 200 uM BH4 as cofactor. In general terms: In DSF a fluorescence change marks the thermal transition of the protein.
The test system of test [2] is Legionella pneumophila. Briefly: Antibacterial activity against Legionella pneumophila 130b assessed as bacterial growth at <= 10 uM after 24 hrs by spectrometer. The test is classed as functional, organism-based.
A short description of test [3]: Binding affinity to Legionella pneumophila recombinant PAH by DSF assay.
Test [4] can be described thus: Non-competitive inhibition of Legionella pneumophila recombinant PAH for free enzyme by […] assay using BH4 as cofactor.
Test [5] is described as follows: Non-competitive inhibition of Legionella pneumophila recombinant PAH for enzyme-substrate complex by […] assay using BH4 as cofactor.
Test [6] deals with Escherichia coli. Briefly: Antibacterial activity against Escherichia coli XL-10 Gold assessed as slower growth rate at > 40 uM after 21 hrs. The test is classed as functional, organism-based.
In test [7] the test system is Legionella pneumophila. In words: Antibacterial activity against Legionella pneumophila 130b assessed as bacterial growth at 40 uM after 24 hrs by spectrometer. The test is classed as functional, organism-based.
For test [8], the system named is Legionella pneumophila. In words: Inhibition of PAH in Legionella pneumophila 130b lysate assessed as residual activity at 10 uM by direct detect spectrometer.
Test [9] can be described thus: Mixed inhibition of Legionella pneumophila recombinant PAH for enzyme-substrate complex by […] assay method using L-Phe as substrate.
The target in test [10] is T1, Phenylalanine-4-hydroxylase (Homo sapiens) (UniProt P00439).
T1 sequence (whole entry): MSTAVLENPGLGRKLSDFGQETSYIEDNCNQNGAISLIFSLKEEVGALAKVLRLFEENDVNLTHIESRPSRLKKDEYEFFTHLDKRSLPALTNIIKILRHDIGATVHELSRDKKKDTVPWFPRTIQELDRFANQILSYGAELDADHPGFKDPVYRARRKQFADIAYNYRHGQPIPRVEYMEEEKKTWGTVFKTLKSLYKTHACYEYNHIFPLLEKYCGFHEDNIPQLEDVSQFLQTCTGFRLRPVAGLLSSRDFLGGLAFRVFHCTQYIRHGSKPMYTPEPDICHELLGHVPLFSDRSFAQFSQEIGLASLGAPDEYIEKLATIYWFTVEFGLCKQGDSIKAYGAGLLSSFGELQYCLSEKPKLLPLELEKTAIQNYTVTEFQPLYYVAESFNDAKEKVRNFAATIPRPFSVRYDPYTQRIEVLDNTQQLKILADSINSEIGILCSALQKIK
Briefly: Inhibition of human PAH by […] assay using L-Phe as substrate and 75 uM BH4 as cofactor.

Test [11] deals with Escherichia coli. In words: Antibacterial activity against Escherichia coli XL-10 Gold at <= 100 uM after 21 hrs. The test is classed as functional, organism-based.
Test [12] relates to Legionella pneumophila. Briefly: Antibacterial activity against Legionella pneumophila 130b assessed as bacterial growth at 20 uM after 24 hrs by spectrometer. The test is classed as functional, organism-based.
A short description of test [13]: Mixed inhibition of Legionella pneumophila recombinant PAH for free enzyme by […] assay using L-Phe as substrate.
A short description of test [14]: Uncompetitive inhibition of Legionella pneumophila recombinant PAH for enzyme-substrate complex by […] assay using L-Phe as substrate.
Test [15] can be described thus: Uncompetitive inhibition of Legionella pneumophila recombinant PAH for free enzyme by […] assay using L-Phe as substrate.
The subject of test [16] is Legionella pneumophila. In words: Antibacterial activity against Legionella pneumophila 130b assessed as bacterial growth at 0.1 to 40 uM after 24 hrs by spectrometer. The test is classed as functional, organism-based.

Regarding `CC(C)(C)c1ccc(C2C(C(=O)c3cccs3)=C(O)C(=O)N2c2nncs2)cc1` (configuration not stated), the Activity with Legionella pneumophila [1] is 4.2%.

Consider `Oc1cc(C(F)(F)F)nn1-c1nc2ccccc2s1`, for which the Activity in the test on Legionella pneumophila [1] stood at 1.4%.

`O=C(C1=C(O)C(=O)N(Cc2ccco2)C1c1ccc(Oc2ccccc2)cc1)c1cccs1` (configuration not stated): in the test on Legionella pneumophila [1], the Activity is 1.53%.

For the compound `O=C(C1=C(O)C(=O)N(c2nncs2)C1c1ccc(Cl)cc1)c1cccs1` (configuration not stated), in the test with Legionella pneumophila [1], the Activity came out at 2.23%.

Regarding `c1ccc(-c2cc(N3CCCCC3)c3ccccc3n2)nc1`, the Activity with Legionella pneumophila [1] came to 3.1%.

`O=c1cc(CO)oc(C(Nc2nccs2)c2ccc(F)cc2)c1O` (configuration not stated): in the test with Legionella pneumophila [1], the Activity came to 0.1%.

Turning to `c1ccc(-c2cc(N3CCOCC3)c3ccccc3n2)nc1`, in the test on Legionella pneumophila [1], the Activity was 4.9% and 2.6%.

In the case of `c1ccc2c(c1)CSc1ccccc1C2n1ccnc1` (configuration not stated), the Activity with Legionella pneumophila [1] came to 1.6%.

In the case of `CN1CCN(c2cc(-c3ccccn3)nc3ccccc23)CC1`, in the test with Legionella pneumophila [1], the Activity was 2.6%.

On to `c1ccc2c(c1)CSc1sccc1C2n1ccnc1` (configuration not stated), for which the result in the test with Legionella pneumophila [2] and in the test with Escherichia coli [11] was inactive. For the same compound, in test [3], the Kd is 1100 nM. Moreover, the Activity was found to be 0.38% in the test with Legionella pneumophila [1] and 36% in the test on Legionella pneumophila [8]. Also, the Ki amounted to 2000 nM in test [4], 1700 nM in [5], 4100 nM in test [9] and 2200 nM in test [13]. For the same compound, the result in the test with Escherichia coli [6], in the test on Legionella pneumophila [7] and in the test on Legionella pneumophila [12] was Active. For the same compound, the inhibition result in [10] is “Active”.

For the compound `Cc1nccn1C1c2ccccc2CSc2sccc21` (configuration not stated), in the test on Legionella pneumophila [1], the Activity was 2.2%.

As for `S=C(NNC(=S)Nc1ccccc1)Nc1ccccc1`, the Activity in the test on Legionella pneumophila [1] is 1.9%.

Regarding `O=C(O)c1cc([N+](=O)[O-])cc2c1-c1ccc([N+](=O)[O-])cc1/C2=N/O`, the Activity in the test with Legionella pneumophila [1] came out at 0.1%; in the test on Legionella pneumophila [8] it was 39%. Also, the Ki in [14] turned out to be 370 nM; in test [15], 20000 nM; in test [4], 1000 nM; in test [5] it was 1000 nM. For the same compound, the outcome in the test with Legionella pneumophila [16] was Active.

As for `CC1(C)CC(=O)C2=C(C1)NC1=C(C(=O)CC(C)(C)C1)C2c1cnc[nH]1`, the Activity with Legionella pneumophila [1] was determined as 3.2%.

The values above are taken from ChEMBL document CHEMBL3632587, “Discovery of a Specific Inhibitor of Pyomelanin Synthesis in Legionella pneumophila” (J Med Chem, 2015).
